We go through 26 compounds from patent publication US10131649B2, “Bicyclic compounds as pest control agents” (BAYER CROPSCIENCE AKTIENGESELLSCHAFT, priority 2014, dated 2018).

Where two headings read alike, the source gives them in different places.

The subject of series [1] is green peach aphid (Myzus persicae). Description: Myzus persicae spray test (Chinese cabbage leaf discs). It is filed as in vivo. The note with it: foliar, 144 h, read-out: efficacy in %. The method, then:
Myzus persicae—Spray Test
Solvent: • 78 parts by weight of acetone • 1.5 parts by weight of dimethylformamide
(§1) Emulsifier: alkylaryl polyglycol ether
(§2) To produce a suitable preparation of active compound, 1 part by weight of active compound is dissolved using the specified parts by weight of solvent and made up with water containing an emulsifier concentration of 1000 ppm until the desired concentration is attained. To produce further test concentrations, the formulation is diluted with emulsifier-containing water.
Discs of Chinese cabbage leaves (Brassica pekinensis) infested by all stages of the green peach aphid (Myzus persicae) are sprayed with an active compound formulation of the desired concentration.
After 6 days, the efficacy in % is determined. 100% means that all the aphids have been killed; 0% means that no aphids have been killed.

Series [2] can be described thus: log P by HPLC on reversed-phase columns (OECD Guideline 117), [a] acidic pH 2.7, [b] neutral pH 7.8. It is filed as physicochemical. The note with it: reversed-phase (C18) HPLC column. The method, then: The log P values were determined in accordance with OECD Guideline 117 (EC Directive 92/69/EEC) by HPLC (high-performance liquid chromatography) using reversed-phase (RP) columns (C18), by the following methods:
[a] The LC-MS determination in the acidic range is carried out at pH 2.7 with 0.1% aqueous formic acid and acetonitrile (contains 0.1% formic acid) as eluents; linear gradient from 10% acetonitrile to 95% acetonitrile.
[b] LC-MS determination in the neutral range is effected at pH 7.8 with 0.001 molar aqueous ammonium hydrogencarbonate solution and acetonitrile as eluents; linear gradient from 10% acetonitrile to 95% acetonitrile.
Calibration is carried out using unbranched alkan-2-ones (having 3 to 16 carbon atoms) with known log P values (log P values determined on the basis of the retention times by linear interpolation between two successive alkanones).

Series [3] deals with nematode larvae (Cooperia curticei). Description: Cooperia curticei test. Type of series: in vivo. The note with it: application rate 20 ppm; after 5 days; 100% = all larvae killed. On the procedure:
(§3) Solvent: dimethyl sulphoxide
(§4) To produce a suitable preparation of active compound, 10 mg of active compound are mixed with 0.5 ml of dimethyl sulfoxide and the concentrate is diluted with “Ringer's solution” to the desired concentration.
Vessels containing the active compound preparation of the desired concentration are populated with about 40 nematode larvae (Cooperia curticei).
(§5) After 5 days, the kill in % is determined. 100% means that all the larvae have been killed; 0% means that none of the larvae have been killed.

Series [4] concerns larvae of the red stomach worm (Haemonchus contortus). Description: Haemonchus contortus test. It is filed as in vivo. The note with it: application rate 20 ppm; after 5 days; 100% = all larvae killed. On the procedure: Haemonchus contortus—Test
as §3, §4
Vessels containing the active compound preparation of the desired concentration are populated with about 40 larvae of the red stomach worm (Haemonchus contortus).
as §5

Series [5] concerns larvae of the mustard beetle (Phaedon cochleariae). Description: Phaedon cochleariae spray test. The note with it: application rate 500 g/ha; after 7 days; 100% = all beetle larvae killed. Type of series: in vivo. The method, then: Phaedon cochleariae—Spray Test
Solvent: • 78.0 parts by weight of acetone • 1.5 parts by weight of dimethylformamide
as §1, §2
Discs of Chinese cabbage leaves (Brassica pekinensis) are sprayed with an active compound preparation of the desired concentration and, after drying, populated with larvae of the mustard beetle (Phaedon cochleariae).
After 7 days, the efficacy in % is determined. 100% means that all the beetle larvae have been killed; 0% means that no beetle larvae have been killed.

[6] abbreviates: acidic pH 2.7, read-out: logP[a].
[7] abbreviates: neutral pH 7.8, read-out: logP[b].

Regarding `Cc1ccc(-c2ccc3nn(-c4cccnc4)cc3c2)nc1` [Example 65], the pest or weed control at 500 g/ha in series [1] turned out to be 90%. Further, the results for the chromatographic logP in series [2] (setting [6]) and in series [2] (setting [7]) were 1.23 and 2.25, respectively. Further, the “efficacy (kill in %)” value came out at 90% in series [3] and 80% in series [4].

As to `Cc1cc(C)c(SCC(F)(F)F)cc1NC(=O)c1ccc2nn(-c3cccnc3)cc2c1` [Example 81, N-{2,4-Dimethyl-5-[(2,2,2-trifluoroethyl)sulphanyl]phenyl}-2-(pyridin-3-yl)-2H-indazole-5-carboxamide], in series [1], the pest or weed control at 500 g/ha is 90%. The chromatographic logP was 3.15 in series [2] (setting [6]) and 3.12 in series [2] (setting [7]).

For the compound `CCSc1ccnc(-c2ccc3nn(-c4cccnc4)cc3c2)c1` [Example 76, 5-[4-(Ethylsulphanyl)pyridin-2-yl]-2-(pyridin-3-yl)-2H-indazole], the pest or weed control at 500 g/ha in series [1] came to 90%. Besides, the chromatographic logP in series [2] (setting [6]) came out at 1.62; in series [2] (setting [7]), 2.84. For the same compound, in series [3], the “efficacy (kill in %)” value was found to be 80%.

Turning to `Clc1cccc(-c2ccc3nn(-c4cccnc4)cc3c2)n1` [Example 61], the pest or weed control at 500 g/ha in series [1] was found to be 100%. The chromatographic logP in series [2] (setting [6]) was determined as 2.79; in series [2] (setting [7]), 2.8.

In the case of `Clc1ccc(-c2ccc3nn(-c4cccnc4)cc3c2)nc1` [Example 67], the pest or weed control at 500 g/ha in series [1] stood at 100%. For the same compound, the chromatographic logP was 2.8 in series [2] (setting [6]) and 2.78 in series [2] (setting [7]). For the same compound, the “efficacy (kill in %)” value in series [3] and in series [4] was 80% throughout.

For the compound `Cc1ccc(NC(=O)c2ccc3nn(-c4cccnc4)cc3c2)cc1[S+]([O-])CC(F)(F)F` (centres unmarked) [Example 94, N-{4-Methyl-3-[(2,2,2-trifluoroethyl)sulphinyl]phenyl}-2-(pyridin-3-yl)-2H-indazole-5-carboxamide], in series [1], the pest or weed control at 500 g/ha stood at 90%. Moreover, the chromatographic logP in series [2] (setting [6]) and in series [2] (setting [7]) was 2.23 throughout.

As to `Clc1ccnc(-c2ccc3nn(-c4cccnc4)cc3c2)c1` [Example 69], the pest or weed control at 500 g/ha in series [1] worked out at 100%. The chromatographic logP is 2.62 in series [2] (setting [6]) and 2.66 in series [2] (setting [7]).

Consider `O=C(c1ccc2nn(-c3cccnc3)cc2c1)N1CCCC1` [Example 88], for which the pest or weed control at 500 g/ha in series [1] is 100%. Moreover, the chromatographic logP in series [2] (setting [6]) was determined as 1.43; in series [2] (setting [7]), 1.48.

As to `Fc1cncc(-n2cc3cc(C(F)(F)F)ccc3n2)c1` [Example 16], the pest or weed control at 500 g/ha in series [1] came out at 100%. This compound also had an efficacy in % in series [5] of 100%.

Regarding `c1ccc(-c2ccc3nn(-c4cccnc4)cc3c2)nc1` [Example 59, 5-(2-Pyridyl)-2-(3-pyridyl)indazole], the pest or weed control at 100 g/ha in series [1] worked out at 90%. Further, the chromatographic logP in series [2] (setting [6]) stood at 1.13; in series [2] (setting [7]), 1.93.

Turning to `Cn1ccc(-c2ccc3nn(-c4cccnc4)cc3c2)n1` [Example 71], the pest or weed control at 500 g/ha in series [1] was found to be 90%. Besides, in series [2] (setting [6]), the chromatographic logP is 1.58.

Turning to `Cc1cc(F)c(NC(=O)c2ccc3nn(-c4cccnc4)cc3c2)cc1[S+]([O-])CC(F)(F)F` (centres unmarked) [Example 96], in series [1], the pest or weed control at 500 g/ha came out at 100%. The chromatographic logP in series [2] (setting [6]) stood at 2.19; in series [2] (setting [7]) it was 2.14.

On to `Cc1ccnc(-c2ccc3nn(-c4cccnc4)cc3c2)c1` [Example 66], for which the pest or weed control at 500 g/ha in series [1] turned out to be 90%. For the same compound, the values for the chromatographic logP in series [2] (setting [6]) and in series [2] (setting [7]) were 0.97 and 2.2, respectively.

For the compound `c1cnc(-c2ccc3nn(-c4cccnc4)cc3c2)nc1` [Example 60, 2-(3-Pyridyl)-5-pyrimidin-2-yl-indazole], the pest or weed control at 500 g/ha in series [1] came out at 90%. For the same compound, the chromatographic logP came out at 1.72 in series [2] (setting [6]) and 1.73 in series [2] (setting [7]).

For the compound `c1cncc(-c2ccc3nn(-c4cccnc4)cc3c2)c1` [Example 57, 2,5-Bis(3-pyridyl)indazole], the pest or weed control at 500 g/ha in series [1] came to 90%. For the same compound, the chromatographic logP turned out to be 0.88 in series [2] (setting [6]) and 1.71 in series [2] (setting [7]). Besides, the “efficacy (kill in %)” value in series [3] is recorded as 80%.

In the case of `CCSc1cccnc1-c1ccc2nn(-c3cccnc3)cc2c1` [Example 77], the pest or weed control at 500 g/ha in series [1] worked out at 90%. Besides, the chromatographic logP in series [2] (setting [6]) worked out at 2.53; in series [2] (setting [7]) it was 1.93.

`Cc1ccc(-c2ccc3nn(-c4cccnc4)cc3c2)cc1SCC(F)(F)F` [Example 50, 5-[4-Methyl-3-(2,2,2-trifluoroethylsulphanyl)phenyl]-2-(3-pyridyl)indazole]: the pest or weed control at 500 g/ha in series [1] amounted to 100%. For the same compound, the chromatographic logP is 4.12 in series [2] (setting [6]) and 4.07 in series [2] (setting [7]).

Turning to `CCSc1cccc(-c2ccc3nn(-c4cccnc4)cc3c2)n1` [Example 79], the pest or weed control at 500 g/ha in series [1] was 100%. Besides, the chromatographic logP in series [2] (setting [6]) and in series [2] (setting [7]) was 3.57 each time.

On to `O=C(c1ccc2nn(-c3cccnc3)cc2c1)N1CCOCC1` [Example 87], for which the pest or weed control at 500 g/ha in series [1] came to 100%. Further, the chromatographic logP in series [2] (setting [6]) was determined as 1.14; in series [2] (setting [7]), 1.16.

For `Cc1cc(F)c(NC(=O)c2ccc3nn(-c4cccnc4)cc3c2)cc1SCC(F)(F)F` [Example 91], the pest or weed control at 100 g/ha in series [1] came out at 90%. Moreover, the chromatographic logP came out at 3.22 in series [2] (setting [6]) and 3.12 in series [2] (setting [7]).

Consider `FC(F)(F)c1ccn(-c2ccc3nn(-c4cccnc4)cc3c2)n1` [Example 56, 2-(3-Pyridyl)-5-[3-(trifluoromethyl)pyrazol-1-yl]indazole], for which, in series [1], the pest or weed control at 500 g/ha was 90%. Moreover, the chromatographic logP is 2.83 in series [2] (setting [6]) and 2.79 in series [2] (setting [7]). The “efficacy (kill in %)” value in series [3] is listed as 90%.

In the case of `CS(=O)(=O)CCNC(=O)c1ccc2nn(-c3cccnc3)cc2c1` [Example 95], the pest or weed control at 500 g/ha in series [1] came to 90%. Moreover, the chromatographic logP in series [2] (setting [6]) was found to be 0.9; in series [2] (setting [7]), 0.95.

`Cc1cccc(-c2ccc3nn(-c4cccnc4)cc3c2)n1` [Example 64]: in series [1], the pest or weed control at 500 g/ha stood at 90%. Also, the chromatographic logP in series [2] (setting [6]) is 1.06; in series [2] (setting [7]), 2.41.

Consider `Cc1cc(F)c(-c2ccc3nn(-c4cccnc4)cc3c2)cc1SCC(F)(F)F` [Example 49, 5-[2-Fluoro-4-methyl-5-(2,2,2-trifluoroethylsulphanyl)phenyl]-2-(3-pyridyl)indazole], for which the pest or weed control at 500 g/ha in series [1] was determined as 90%. Moreover, the chromatographic logP in series [2] (setting [6]) was determined as 4.23; in series [2] (setting [7]) it was 4.11.

Turning to `Cc1ccc(NC(=O)c2ccc3nn(-c4cccnc4)cc3c2)cc1SCC(F)(F)F` [Example 82], the pest or weed control at 500 g/ha in series [1] was found to be 90%. Moreover, the chromatographic logP in series [2] (setting [6]) was found to be 3.22; in series [2] (setting [7]), 3.15.

For `CCSc1ccc(-c2ccc3nn(-c4cccnc4)cc3c2)nc1` [Example 80], in series [1], the pest or weed control at 500 g/ha was 100%. The chromatographic logP in series [2] (setting [6]) stood at 2.87; in series [2] (setting [7]), 3.03.
